Source: patent US9596874B2, “Bitter taste masking compositions and method of masking bitter taste” (Givaudan S.A., priority 2010, dated 2017)

Assay: Panel tasting of KCl/NaCl solutions in water
Details: for masking of the off-notes of KCl: 5000 ppm sugar alcohol in water with 1600 ppm KCl and 800 ppm NaCl, panel of professional tasters
Protocol: Three solutions were prepared: • A 1600 ppm of KCl and 800 ppm of NaCl in water • B 1600 ppm of KCl and 800 ppm of NaCl in water containing 5000 ppm of mannitol • C 1600 ppm of KCl and 800 ppm of NaCl in water containing 5000 ppm of dulcitol The solutions were compared by a panel of professional tasters.

## OC[C@@H](O)[C@H](O)[C@H](O)[C@@H](O)CO [dulcitol, Galactitol (=dulcitol)]
5000 ppm dulcitol vs 5000 ppm mannitol, 1600 ppm KCl and 800 ppm NaCl in water, panel
  masking compared with mannitol: noticeably better in masking
5000 ppm dulcitol, 1600 ppm KCl and 800 ppm NaCl in water, panel
  taste perception: more positive, described as ‘rounded-off’, perception
  masking of the off-notes of KCl: mask the off-notes KCl well

## OC[C@@H](O)[C@@H](O)[C@H](O)[C@H](O)CO [mannitol, Mannitol]
  masking of the off-notes of KCl: mask the off-notes KCl well
